Patent publication US20090298834A1, “4-(AMINOMETHYL)CYCLOHEXANAMINE DERIVATIVES AS CALCIUM CHANNEL BLOCKERS” (priority 2008, published 2009)

Columns and labels:
[1] = biological target: T1, human α1G T-type channels (Homo sapiens, UniProt O43497); assay: T-type calcium channel block, whole cell patch clamp (α1G); format: cell-based; conditions: HEK cells stably expressing human α1G; mainly non-inactivated protocol; values above 10 μM represented as 10 μM, values below 0.30 μM represented as 0.30 μM
T1 construct: expressed in transfected cells; host or cells: HEK 293
Summary of the method: (§1)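 Resting block was measured mainly with the non-inactivated protocol: holding potential −110 mV, 1 s step to −100 mV, then a 50 ms test pulse at −40 mV. Recordings used stably transfected human α1G or α1H HEK293 lines, with compounds perfused in external solution containing 0.1-0.01% DMSO. IC50 values (μM) above 10 μM are reported as 10 μM.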

[2] = biological target: T2, human α1H T-type channels (Homo sapiens, UniProt O95180); assay: T-type calcium channel block, whole cell patch clamp (α1H); format: cell-based; conditions: HEK cells stably expressing human α1H; mainly non-inactivated protocol; values above 10 μM represented as 10 μM
T2 construct: expressed in transfected cells; host or cells: HEK 293
Summary of the method: as §1

T2 sequence (O95180 whole entry): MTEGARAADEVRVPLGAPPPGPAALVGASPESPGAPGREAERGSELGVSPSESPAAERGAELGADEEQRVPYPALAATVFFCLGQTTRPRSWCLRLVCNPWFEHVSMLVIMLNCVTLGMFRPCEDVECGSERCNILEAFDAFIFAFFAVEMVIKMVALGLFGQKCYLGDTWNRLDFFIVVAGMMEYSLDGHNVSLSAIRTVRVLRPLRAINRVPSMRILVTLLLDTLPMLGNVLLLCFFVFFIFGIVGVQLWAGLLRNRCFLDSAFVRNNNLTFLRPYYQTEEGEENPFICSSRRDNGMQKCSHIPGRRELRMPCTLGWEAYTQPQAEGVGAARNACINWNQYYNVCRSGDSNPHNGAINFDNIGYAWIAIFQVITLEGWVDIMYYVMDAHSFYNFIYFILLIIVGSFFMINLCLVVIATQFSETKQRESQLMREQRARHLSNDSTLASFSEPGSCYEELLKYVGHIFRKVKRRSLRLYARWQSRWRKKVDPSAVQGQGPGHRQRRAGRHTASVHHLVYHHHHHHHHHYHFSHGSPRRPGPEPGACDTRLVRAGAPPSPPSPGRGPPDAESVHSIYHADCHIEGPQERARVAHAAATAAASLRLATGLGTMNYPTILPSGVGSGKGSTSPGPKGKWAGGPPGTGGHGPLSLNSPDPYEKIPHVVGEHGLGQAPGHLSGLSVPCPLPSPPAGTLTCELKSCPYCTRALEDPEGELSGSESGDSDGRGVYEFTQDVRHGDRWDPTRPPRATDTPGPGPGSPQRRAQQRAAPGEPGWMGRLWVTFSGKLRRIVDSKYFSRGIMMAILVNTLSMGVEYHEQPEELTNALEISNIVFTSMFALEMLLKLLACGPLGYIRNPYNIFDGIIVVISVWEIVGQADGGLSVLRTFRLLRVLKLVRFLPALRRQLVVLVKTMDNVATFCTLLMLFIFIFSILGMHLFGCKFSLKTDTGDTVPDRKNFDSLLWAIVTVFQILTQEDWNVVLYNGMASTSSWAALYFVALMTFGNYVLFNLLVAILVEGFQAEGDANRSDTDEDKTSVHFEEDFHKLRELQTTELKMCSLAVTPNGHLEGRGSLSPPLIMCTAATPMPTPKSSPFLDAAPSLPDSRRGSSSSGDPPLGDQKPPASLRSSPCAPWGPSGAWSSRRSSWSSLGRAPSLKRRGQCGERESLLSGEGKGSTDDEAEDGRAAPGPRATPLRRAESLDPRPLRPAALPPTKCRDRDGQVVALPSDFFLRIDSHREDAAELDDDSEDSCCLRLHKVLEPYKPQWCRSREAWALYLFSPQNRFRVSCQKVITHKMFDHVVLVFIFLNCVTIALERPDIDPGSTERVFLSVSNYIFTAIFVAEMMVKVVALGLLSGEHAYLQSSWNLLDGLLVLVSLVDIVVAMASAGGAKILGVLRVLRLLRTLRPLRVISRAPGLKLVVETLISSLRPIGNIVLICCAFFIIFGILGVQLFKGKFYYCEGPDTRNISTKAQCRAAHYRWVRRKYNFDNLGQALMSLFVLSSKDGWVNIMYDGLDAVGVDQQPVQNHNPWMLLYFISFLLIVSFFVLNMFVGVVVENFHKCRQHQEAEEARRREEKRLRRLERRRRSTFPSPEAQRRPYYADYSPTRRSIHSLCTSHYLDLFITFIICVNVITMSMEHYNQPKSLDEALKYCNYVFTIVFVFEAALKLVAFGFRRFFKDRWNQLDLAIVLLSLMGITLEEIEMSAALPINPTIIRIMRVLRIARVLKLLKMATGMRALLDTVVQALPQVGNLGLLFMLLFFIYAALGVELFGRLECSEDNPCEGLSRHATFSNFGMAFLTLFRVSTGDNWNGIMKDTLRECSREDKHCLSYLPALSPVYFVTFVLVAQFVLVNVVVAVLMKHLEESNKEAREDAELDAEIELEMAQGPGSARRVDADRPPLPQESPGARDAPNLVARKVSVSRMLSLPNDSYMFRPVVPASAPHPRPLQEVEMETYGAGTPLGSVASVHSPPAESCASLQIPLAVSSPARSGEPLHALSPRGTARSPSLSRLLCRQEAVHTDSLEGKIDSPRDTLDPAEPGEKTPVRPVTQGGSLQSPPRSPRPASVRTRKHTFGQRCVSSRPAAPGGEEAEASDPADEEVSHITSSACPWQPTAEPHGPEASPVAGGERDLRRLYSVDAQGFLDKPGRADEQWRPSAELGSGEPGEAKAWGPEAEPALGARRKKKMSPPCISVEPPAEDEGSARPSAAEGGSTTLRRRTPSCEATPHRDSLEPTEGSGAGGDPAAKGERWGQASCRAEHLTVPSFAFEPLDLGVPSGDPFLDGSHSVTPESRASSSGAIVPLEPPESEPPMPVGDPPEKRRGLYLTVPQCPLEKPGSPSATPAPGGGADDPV
T1 sequence (O43497 whole entry): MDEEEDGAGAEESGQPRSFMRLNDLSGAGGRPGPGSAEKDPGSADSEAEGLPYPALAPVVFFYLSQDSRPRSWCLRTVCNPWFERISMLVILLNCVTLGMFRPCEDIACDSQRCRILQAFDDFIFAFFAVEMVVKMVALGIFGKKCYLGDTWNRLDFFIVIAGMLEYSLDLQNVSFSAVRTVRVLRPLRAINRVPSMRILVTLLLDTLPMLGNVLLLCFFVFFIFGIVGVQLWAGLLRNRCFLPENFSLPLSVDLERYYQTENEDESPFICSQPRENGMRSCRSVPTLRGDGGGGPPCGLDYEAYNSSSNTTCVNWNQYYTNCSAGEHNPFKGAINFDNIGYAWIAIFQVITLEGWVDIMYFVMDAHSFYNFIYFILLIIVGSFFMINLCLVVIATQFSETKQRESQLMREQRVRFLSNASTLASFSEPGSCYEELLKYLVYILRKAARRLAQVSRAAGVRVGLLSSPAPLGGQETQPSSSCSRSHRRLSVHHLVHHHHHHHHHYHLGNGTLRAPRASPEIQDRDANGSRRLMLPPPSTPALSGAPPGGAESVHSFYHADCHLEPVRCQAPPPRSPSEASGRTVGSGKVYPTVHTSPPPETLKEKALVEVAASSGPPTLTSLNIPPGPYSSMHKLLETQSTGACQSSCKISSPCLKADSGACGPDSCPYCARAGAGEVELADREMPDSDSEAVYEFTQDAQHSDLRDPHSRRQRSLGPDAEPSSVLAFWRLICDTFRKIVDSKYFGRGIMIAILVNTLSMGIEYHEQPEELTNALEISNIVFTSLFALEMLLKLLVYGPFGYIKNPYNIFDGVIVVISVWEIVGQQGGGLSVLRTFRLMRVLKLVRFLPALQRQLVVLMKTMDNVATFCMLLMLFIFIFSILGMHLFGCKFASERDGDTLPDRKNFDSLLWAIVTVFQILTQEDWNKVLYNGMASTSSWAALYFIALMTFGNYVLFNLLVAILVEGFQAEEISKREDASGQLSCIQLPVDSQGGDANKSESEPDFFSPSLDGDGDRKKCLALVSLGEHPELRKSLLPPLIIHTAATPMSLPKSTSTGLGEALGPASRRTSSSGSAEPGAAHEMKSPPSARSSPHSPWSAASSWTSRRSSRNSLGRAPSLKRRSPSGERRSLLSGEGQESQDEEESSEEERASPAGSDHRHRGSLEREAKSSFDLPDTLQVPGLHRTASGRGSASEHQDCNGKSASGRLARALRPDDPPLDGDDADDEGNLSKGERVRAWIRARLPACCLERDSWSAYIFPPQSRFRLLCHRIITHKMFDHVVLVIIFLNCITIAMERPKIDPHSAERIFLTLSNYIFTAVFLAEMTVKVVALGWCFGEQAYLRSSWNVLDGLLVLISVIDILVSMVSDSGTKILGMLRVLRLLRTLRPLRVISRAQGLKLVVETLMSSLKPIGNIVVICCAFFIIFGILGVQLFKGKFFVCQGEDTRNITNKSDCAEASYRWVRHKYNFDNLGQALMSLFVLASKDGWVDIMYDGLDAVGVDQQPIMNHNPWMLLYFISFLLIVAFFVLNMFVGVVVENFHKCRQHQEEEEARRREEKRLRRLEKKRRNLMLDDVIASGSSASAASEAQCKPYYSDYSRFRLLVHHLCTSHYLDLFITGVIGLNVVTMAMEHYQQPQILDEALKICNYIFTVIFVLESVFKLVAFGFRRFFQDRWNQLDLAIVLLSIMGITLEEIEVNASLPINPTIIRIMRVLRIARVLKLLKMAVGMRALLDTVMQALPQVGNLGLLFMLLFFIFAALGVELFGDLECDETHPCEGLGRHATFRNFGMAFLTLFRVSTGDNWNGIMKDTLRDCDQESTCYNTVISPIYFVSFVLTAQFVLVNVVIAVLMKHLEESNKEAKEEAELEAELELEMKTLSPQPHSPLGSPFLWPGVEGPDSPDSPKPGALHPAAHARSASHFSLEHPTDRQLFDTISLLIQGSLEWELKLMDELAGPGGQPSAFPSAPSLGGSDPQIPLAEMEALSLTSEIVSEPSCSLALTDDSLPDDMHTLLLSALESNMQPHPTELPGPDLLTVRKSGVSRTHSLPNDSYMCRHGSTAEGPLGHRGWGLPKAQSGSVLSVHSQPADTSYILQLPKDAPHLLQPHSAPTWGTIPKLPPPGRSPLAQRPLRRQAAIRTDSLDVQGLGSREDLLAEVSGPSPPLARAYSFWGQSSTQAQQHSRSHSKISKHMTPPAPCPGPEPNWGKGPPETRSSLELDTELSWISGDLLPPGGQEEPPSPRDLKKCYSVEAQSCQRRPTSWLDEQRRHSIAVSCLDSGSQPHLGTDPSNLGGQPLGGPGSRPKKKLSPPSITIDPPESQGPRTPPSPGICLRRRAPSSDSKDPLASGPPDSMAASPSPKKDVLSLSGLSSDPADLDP

| IC50 [1] | IC50 [2] | Structure (SMILES) |
| --- | --- | --- |
| 700 nM | 7850 nM | O=C(NC[C@H]1CC[C@H](NC(=O)[C@H]2CC[C@@H](c3ccccc3)N2)CC1)c1cc(C(F)(F)F)cc(C(F)(F)F)c1 [Compound 137, (2R,5S)-N-(trans-4-((3,5-bis(trifluoromethyl)benzamido)methyl)cyclohexyl)-5-phenylpyrrolidine-2-carboxamide] |
| 390 nM | 580 nM | CC(C)(C)C(O)CN[C@H]1CC[C@@H](CNC(=O)c2cc(C(F)(F)F)cc(C(F)(F)F)c2)CC1 (stereo partly drawn) [Compound 1] |
| ≤ 300 nM | 800 nM | COc1ccccc1CN[C@H]1CC[C@H](CNC(=O)c2cc(C(F)(F)F)cc(C(F)(F)F)c2)CC1 [Compound 29, N-((trans-4-(2-methoxybenzylamino)cyclohexyl)methyl)-3,5-bis(trifluoromethyl)benzamide] |
| 6130 nM | 2160 nM | CC1(C)COCCN1C(=O)CN[C@H]1CC[C@H](CNC(=O)c2cc(F)cc(Cl)c2)CC1 [Compound 203, 3-chloro-N-(((1r,4r)-4-(2-(3,3-dimethylmorpholino)-2-oxoethylamino)cyclohexyl)methyl)-5-fluorobenzamide] |
| ≤ 300 nM | 2450 nM | O=C(NC[C@H]1CC[C@H](NCc2ccccc2O)CC1)c1cc(C(F)(F)F)cc(C(F)(F)F)c1 [Compound 25, N-((trans-4-(2-hydroxybenzylamino)cyclohexyl)methyl)-3,5-bis(trifluoromethyl)benzamide] |
| 1060 nM | 5830 nM | COc1cccnc1CN[C@H]1CC[C@H](CNC(=O)c2cc(C(F)(F)F)cc(C(F)(F)F)c2)CC1 [Compound 30, N-((trans-4-((3-methoxypyridin-2-yl)methylamino)cyclohexyl)methyl)-3,5-bis(trifluoromethyl)benzamide] |
| ≤ 300 nM | 310 nM | C#CC(CC)(CC)NC(=O)CN[C@H]1CC[C@H](CNC(=O)c2cc(C(F)(F)F)cc(C(F)(F)F)c2)CC1 [Compound 62, N-((trans-4-(2-(3-ethylpent-1-yn-3-ylamino)-2-oxoethylamino)cyclohexyl)methyl)-3,5-bis(trifluoromethyl)benzamide] |
| 850 nM | 710 nM | Cc1cccc(CN[C@H]2CC[C@@H](CNC(=O)c3cc(C(F)(F)F)cc(C(F)(F)F)c3)CC2)c1O [Compound 9, N-((cis-4-(2-hydroxy-3-methylbenzylamino)cyclohexyl)methyl)-3,5-bis(trifluoromethyl)benzamide] |
| 1620 nM | 210 nM | CN(C(=O)CN[C@H]1CC[C@@H](CNC(=O)c2cc(F)cc(Cl)c2)CC1)C(C)(C)C [Compound 196, N-(((1s,4s)-4-(2-(tert-butyl(methyl)amino)-2-oxoethylamino)cyclohexyl)methyl)-3-chloro-5-fluorobenzamide] |
| 340 nM | 120 nM | CC1(NC(=O)CN[C@H]2CC[C@H](CNC(=O)c3cc(Cl)cc(Cl)c3)CC2)CCC1 [Compound 192, 3,5-dichloro-N-(((1r,4r)-4-(2-(1-methylcyclobutylamino)-2-oxoethylamino)cyclohexyl)methyl)benzamide] |
| 970 nM | 310 nM | CC1(NC(=O)CN[C@H]2CC[C@H](CNC(=O)c3cc(F)cc(Cl)c3)CC2)CCC1 [Compound 202, 3-chloro-5-fluoro-N-(((1r,4r)-4-(2-(1-methylcyclobutylamino)-2-oxoethylamino)cyclohexyl)methyl)benzamide] |
| 4540 nM | 4430 nM | CC(C)(O)CN[C@H]1CC[C@H](CNC(=O)c2cc(C(F)(F)F)cc(C(F)(F)F)c2)CC1 [Compound 4, N-((trans-4-(2-hydroxy-2-methylpropylamino)cyclohexyl)methyl)-3,5-bis(trifluoromethyl)benzamide] |
| 450 nM | 1530 nM | CC(C)(C)[C@H](O)C(=O)NC1CCC(CC(=O)Nc2cc(C(F)(F)F)cc(C(F)(F)F)c2)CC1 (stereo in doubt) [Compound 108, (S)-N-((trans)-4-(2-(3,5-bis(trifluoromethyl)phenylamino)-2-oxoethyl)cyclohexyl)-2-hydroxy-3,3-dimethylbutanamide] |
| 1580 nM | 650 nM | CC1(C)CCCN1C(=O)CN[C@H]1CC[C@H](CNC(=O)c2cc(F)cc(Cl)c2)CC1 [Compound 204, 3-chloro-N-(((1r,4r)-4-(2-(2,2-dimethylpyrrolidin-1-yl)-2-oxoethylamino)cyclohexyl)methyl)-5-fluorobenzamide] |
| 3400 nM | 400 nM | CC1(C)COCCN1C(=O)CN[C@H]1CC[C@@H](CNC(=O)c2cc(F)cc(Cl)c2)CC1 [Compound 194, 3-chloro-N-(((1s,4s)-4-(2-(3,3-dimethylmorpholino)-2-oxoethylamino)cyclohexyl)methyl)-5-fluorobenzamide] |
| 1180 nM | 540 nM | CN(C(=O)CN[C@H]1CC[C@H](CNC(=O)c2cc(F)cc(Cl)c2)CC1)C1(C)CCC1 [Compound 211, 3-chloro-5-fluoro-N-(((1r,4r)-4-(2-(methyl(1-methylcyclobutyl)amino)-2-oxoethylamino)cyclohexyl)methyl)benzamide] |

Continued, compound first:

| Structure (SMILES) | IC50 [1] | IC50 [2] |
| --- | --- | --- |
| COCC(C)(C)N(C)C(=O)CN[C@H]1CC[C@@H](CNC(=O)c2cc(F)cc(OC)c2)CC1 [Compound 214, 3-fluoro-5-methoxy-N-(((1s,4s)-4-(2-((1-methoxy-2-methylpropan-2-yl)(methyl)amino)-2-oxoethylamino)cyclohexyl)methyl)benzamide] | 5820 nM | 710 nM |
| CC(C)CNC(=O)CNC[C@H]1CC[C@H](NC(=O)c2cc(C(F)(F)F)cc(C(F)(F)F)c2)CC1 [Compound 93, N-(trans-4-((2-(isobutylamino)-2-oxoethylamino)methyl)cyclohexyl)-3,5-bis(trifluoromethyl)benzamide] | 1380 nM | 1710 nM |
| CC1(C)CCCN1C(=O)CN[C@H]1CC[C@@H](CNC(=O)c2cc(F)cc(Cl)c2)CC1 [Compound 195, 3-chloro-N-(((1s,4s)-4-(2-(2,2-dimethylpyrrolidin-1-yl)-2-oxoethylamino)cyclohexyl)methyl)-5-fluorobenzamide] | 1100 nM | 170 nM |
| O=C(NC[C@H]1CC[C@@H](NCc2cccnc2F)CC1)c1cc(F)cc(C(F)(F)F)c1 [Compound 17, 3-fluoro-N-((cis-4-((2-fluoropyridin-3-yl)methylamino)cyclohexyl)methyl)-5-(trifluoromethyl)benzamide] | 7730 nM | 4940 nM |
| O=C(NC[C@H]1CC[C@@H](NCc2ccccc2O)CC1)c1cc(F)cc(C(F)(F)F)c1 [Compound 15, 3-fluoro-N-((cis-4-(2-hydroxybenzylamino)cyclohexyl)methyl)-5-(trifluoromethyl)benzamide] | 780 nM | 1650 nM |
| CC(C)(C)NC(=O)CN[C@H]1CC[C@@H](CNC(=O)c2cccc(Cl)c2)CC1 [Compound 179, N-(((1s,4s)-4-(2-(tert-butylamino)-2-oxoethylamino)cyclohexyl)methyl)-3-chlorobenzamide] | 2920 nM | 1320 nM |
| COc1cc(F)cc(C(=O)NC[C@H]2CC[C@@H](NCC(=O)N3CCOCC3(C)C)CC2)c1 [Compound 198, N-(((1s,4s)-4-(2-(3,3-dimethylmorpholino)-2-oxoethylamino)cyclohexyl)methyl)-3-fluoro-5-methoxybenzamide] | 9920 nM | 630 nM |
| COc1cc(F)cc(C(=O)NC[C@H]2CC[C@@H](NCC(=O)N(C)C3(C)CCC3)CC2)c1 [Compound 215, 3-fluoro-5-methoxy-N-(((1s,4s)-4-(2-(methyl(1-methylcyclobutyl)amino)-2-oxoethylamino)cyclohexyl)methyl)benzamide] | 1990 nM | 410 nM |
| O=C(NC[C@H]1CC[C@@H](NC(=O)[C@@H]2C[C@@H](c3ccccc3)CN2)CC1)c1cc(C(F)(F)F)cc(C(F)(F)F)c1 [Compound 125, (2S,4S)-N-(cis-4-((3,5-bis(trifluoromethyl)benzamido)methyl)cyclohexyl)-4-phenylpyrrolidine-2-carboxamide] | 940 nM | 2430 nM |
| COc1cc(F)cc(C(=O)NC[C@H]2CC[C@H](NCC(=O)N(C)C(C)(C)C)CC2)c1 [Compound 210, N-(((1r,4r)-4-(2-(tert-butyl(methyl)amino)-2-oxoethylamino)cyclohexyl)methyl)-3-fluoro-5-methoxybenzamide] | 5610 nM | 2390 nM |
| CN(C(=O)CN[C@H]1CC[C@H](CNC(=O)c2cc(C(F)(F)F)cc(C(F)(F)F)c2)CC1)C1CCCC1 [Compound 59, N-((trans-4-(2-(cyclopentyl(methyl)amino)-2-oxoethylamino)cyclohexyl)methyl)-3,5-bis(trifluoromethyl)benzamide] | ≤ 300 nM | 620 nM |
| CC(C)(C)OC(=O)NCCN[C@H]1CC[C@@H](CNC(=O)c2cc(F)cc(C(F)(F)F)c2)CC1 [Compound 97, tert-butyl 2-(cis-4-((3-fluoro-5-(trifluoromethyl)benzamido)methyl)cyclohexylamino)ethylcarbamate] | 900 nM | 900 nM |
| N[C@H]1CCCC[C@H]1C(=O)N[C@H]1CC[C@H](CC(=O)Nc2cc(C(F)(F)F)cc(C(F)(F)F)c2)CC1 [Compound 122, (1R,2S)-2-amino-N-(trans-4-(2-(3,5-bis(trifluoromethyl)phenylamino)-2-oxoethyl)cyclohexyl)cyclohexanecarboxamide] | 840 nM | 3620 nM |
| NC1(C(=O)N[C@H]2CC[C@H](CC(=O)Nc3cc(C(F)(F)F)cc(C(F)(F)F)c3)CC2)CCCCC1 [Compound 117, 1-amino-N-(trans-4-(2-(3,5-bis(trifluoromethyl)phenylamino)-2-oxoethyl)cyclohexyl)cyclohexanecarboxamide] | 1070 nM | ≥ 10000 nM |
